Results published in ChEMBL document CHEMBL5705883, “Discovery of a selective inhibitor of oncogenic B-Raf kinase with potent antimelanoma activity” (Proc Natl Acad Sci U S A, 2008).
The source made the active and inactive calls. The calls are words filed in the database; no cut-off is given here.

What was measured:
Mus musculus = organism: Mus musculus; conditions: SCID, dose 100.0 mg/kg, route po, time 15.0 day
COLO 205 = test: cells; conditions: Homo sapiens, COLO 205, 72 h
A-375 = test: cells; conditions: Homo sapiens, A-375, 72 h
WM 266-4 = test: cells; conditions: Homo sapiens, WM 266-4, 72 h
COLO-829 = test: cells; conditions: Homo sapiens, COLO-829, 72 h
cells [1] = conditions: HT716, 72 h
SW-620 = test: cells; conditions: Homo sapiens, SW-620, 72 h
NCI-H460 = test: cells; conditions: Homo sapiens, NCI-H460, 72 h
Calu-6 = test: cells; conditions: Homo sapiens, Calu-6, 72 h
HCT-116 = test: cells; conditions: Homo sapiens, HCT-116, 72 h
SK-MEL-2 = test: cells; conditions: Homo sapiens, SK-MEL-2, 72 h
SK-MEL3 = test: cells; conditions: Homo sapiens, SK-MEL3, 72 h
LoVo = test: cells; conditions: Homo sapiens, 72 h
NCI-H1299 = test: cells; conditions: Homo sapiens, NCI-H1299, 72 h
cells [2] = conditions: Homo sapiens, COLO 205, 1 h
cells [3] = conditions: Homo sapiens, A-375, 1 h
cells [4] = conditions: Homo sapiens, COLO-829, 1 h
cells [5] = conditions: Homo sapiens, SW-620, 1 h
in vivo = conditions: nude, mouse, plasma, po, 1000 mg/kg
animal or person = conditions: Mus musculus, COLO 205, po, 336 h, read-out: INH

## CCCS(=O)(=O)Nc1ccc(F)c(C(=O)c2c[nH]c3ncc(Cl)cc23)c1F [PLX-4720]
Mus musculus
  inhibition: Active
COLO 205
  GI50: 310 nM
A-375
  GI50: 500 nM
WM 266-4
  GI50: 1500 nM
COLO-829
  GI50: 1700 nM
Cells [1]
  GI50: 10 µM
SW-620
  GI50: 13 µM
NCI-H460
  GI50: 24 µM
Calu-6
  GI50: 26 µM
HCT-116
  GI50: 27 µM
SK-MEL-2
  GI50: 27 µM
SK-MEL3
  GI50: 27 µM
LoVo
  GI50: 29 µM
NCI-H1299
  GI50: 41 µM
Cells [2]
  IC50: 14 nM
Cells [3]
  IC50: 46 nM
Cells [4]
  IC50: 44 nM
Cells [5]
  IC50: > 40 µM
In vivo
  concentration at 336 h: ≤ 600 µM
Animal or person
  inhibition in vivo at 20 mg/kg: 43%
